Results taken from patent US9676780B2, “Piperazine-substituted [1,2,4]triazolo[1,5-C]quinazolin-5-amine compounds with A2A antagonist properties” (MERCK SHARP & DOHME CORP., priority 2012, dated 2017).

What follows are molecules tested against T1, human A2a receptor (Homo sapiens, UniProt P29274) (assay: A2a receptor competition binding assay (Scintillation Proximity, tritiated radioligand)). Settings: A2a EC50, membranes from HEK293 cells expressing the human A2a receptor; 0.5 nM tritiated ligand; SPA beads; one hour at room temperature.
T1 construct: purchased Perkin-Elmer RBHA2AM400UA; host or cells: HEK293
Experimental: Binding affinities of compounds of the invention for the human A2a receptor were determined in a competition binding assay using Scintillation Proximity technology. […] The beads were then allowed to settle to the bottom of the wells for 1 hr, after which the membrane-associated radioactivity was determined by scintillation counting in a TopCount microplate reader. Ki values were determined using the Cheng-Prusoff equation.
• HEK293 cells expressing the human, rat, dog or monkey adenosine 2a receptor (Purchased from Perkin-Elmer # RBHA2AM400UA). • The Tritiated compound was prepared in-house by MRL Radiochemistry according to published methods. • Wheatgerm agglutinin-coated yttrium silicate SPA beads (GE Healthcare #RPNQ0023). […] This is a 2.5× solution. The final concentration in the assay is 0.5 nM. Calculate the concentration by counting two 5 ul aliquots. Membrane Preparation • Use 0.25 ug of membrane/well. Dilute membranes to 9.7 ug/ml in assay buffer. Treat with 20 ug/ml adenosine deaminase (ADA) for 15 minutes at room temperature to degrade endogenous adenosine. Membrane-Bead Mixture • Use 100 ug/well wheatgerm agglutinin-coated yttrium silicate SPA beads. • Mix ADA-treated membranes and SPA beads together for 30 min prior to assay. […] Incubate for one hour at room temperature with agitation. • Include total binding (assay buffer+1% DMSO) and non-specific binding (CGS15943, 1 uM) wells. Counting • Allow the beads to settle for one hour. • Count in TopCount. Calculations • A curve fitting program (i.e., Prism, Activity Base, Chemcart) is used to determine the EC50.
The Ki value is calculated using the Cheng-Prusoff equation. Ki=EC50/(1+(radioligand concentration/Kd))

T1 sequence (P29274 whole entry): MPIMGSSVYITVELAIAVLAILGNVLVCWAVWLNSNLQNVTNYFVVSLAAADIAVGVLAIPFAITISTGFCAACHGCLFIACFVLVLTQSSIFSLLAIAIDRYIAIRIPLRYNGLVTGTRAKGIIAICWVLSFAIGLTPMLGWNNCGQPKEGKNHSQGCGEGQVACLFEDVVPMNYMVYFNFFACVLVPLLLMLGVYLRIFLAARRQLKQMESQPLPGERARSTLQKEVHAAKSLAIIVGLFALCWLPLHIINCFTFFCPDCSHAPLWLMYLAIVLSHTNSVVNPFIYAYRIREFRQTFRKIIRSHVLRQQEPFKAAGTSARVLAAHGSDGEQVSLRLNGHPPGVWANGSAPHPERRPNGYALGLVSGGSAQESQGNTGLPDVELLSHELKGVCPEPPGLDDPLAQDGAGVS

SMILES	EC50 [nM]
COc1cccc2c1nc(N)n1nc(CN3C4CCC3C3CCC4N3C(=O)c3ccc(C(F)(F)F)cc3)nc21 [Ex-203]	8.5
COc1cccc2c1nc(N)n1nc(CN3C4CCC3C3CCC4N3C(=O)c3ccc(F)cc3)nc21 [Ex-204]	11.5
COc1cccc2c1nc(N)n1nc(CN3C4CCC3C3CCC4N3c3ccc(C(F)(F)F)cn3)nc21 [Ex-205]	4.1
COc1cc(F)cc2c1nc(N)n1nc(CN3C4CCC3CN(Cc3ccccc3)C4)nc21 [Ex-206]	30.9
COc1cccc2c1nc(N)n1nc(CN3C4CCC3C3CCC4N3)nc21 [Ex-208]	143

Same assay, conditions: membranes from HEK293 cells expressing the human A2a receptor; 0.5 nM tritiated ligand; SPA beads; one hour at room temperature; read-out: A2a EC50

SMILES	EC50 [nM]
COc1cccc2c1nc(N)n1nc(CN3CCN(c4ccc(C#N)cn4)CC3C)nc21 (centres unmarked) [Ex-137]	20.6
COc1cccc2c1nc(N)n1nc(CN3CCN(c4ccc(C)cn4)CC3C)nc21 (centres unmarked) [Ex-138]	14.3
COc1cccc2c1nc(N)n1nc(CN3CCN(c4cc(C(F)(F)F)c(C(F)(F)F)cn4)CC3C)nc21 (centres unmarked) [Ex-139]	81.8
COc1cccc2c1nc(N)n1nc(CN3CCN(c4cnn(CC(C)(C)C)c4)CC3C)nc21 (centres unmarked) [Ex-140]	4.93
COCc1c2cc(N3CCN(Cc4nc5c6cccc(OC)c6nc(N)n5n4)C(C)C3)ccc2nn1C (centres unmarked) [Ex-141]	2.34
COc1ccnc(N2CCN(Cc3nc4c5cccc(OC)c5nc(N)n4n3)C(C)C2)c1 (centres unmarked) [Ex-142]	16.5
COc1cccc2c1nc(N)n1nc(CN3CCN(c4cccc(S(C)(=O)=O)c4)CC3C)nc21 (centres unmarked) [Ex-143]	13.9
COc1cccc2c1nc(N)n1nc(CN3CCN(c4cnccc4C)CC3C)nc21 (centres unmarked) [Ex-144]	20.1
COc1cncc(N2CCN(Cc3nc4c5cccc(OC)c5nc(N)n4n3)C(C)C2)c1 (centres unmarked) [Ex-146]	6.35
COc1cccc2c1nc(N)n1nc(C(=O)N3CCN(CC(F)(F)F)CC3C)nc21 (centres unmarked) [Ex-147]	6.6
COc1cccc2c1nc(N)n1nc(CN3CCN(c4ncccc4C(F)(F)F)CC3C)nc21 (centres unmarked) [Ex-148]	18
COc1cccc2c1nc(N)n1nc(CN3CCN(c4cc(F)cc(C(=O)O)c4)CC3C)nc21 (centres unmarked) [Ex-149]	13.4
COc1cccc2c1nc(N)n1nc(CN3C(C)CN(c4ccc(F)cn4)CC3C)nc21 (centres unmarked) [Ex-150]	15
COc1cccc2c1nc(N)n1nc(CN3CCN(c4ccc(OCC(F)F)cc4)CC3C)nc21 (centres unmarked) [Ex-151]	2.22
COc1cccc2c1nc(N)n1nc(CN3CCN(c4ccc(OCC5CC5)cc4)CC3C)nc21 (centres unmarked) [Ex-152]	2.2
COc1cccc2c1nc(N)n1nc(CC(=O)N3CCN(c4ccccn4)CC3)nc21 [Ex-153]	7.3
COc1cccc2c1nc(N)n1nc(CC(=O)N3CCN(c4ccc(F)cc4)C[C@H]3C)nc21 [Ex-154]	2.6
C[C@@H]1CN(c2ccc(F)cc2)CCN1Cc1nc2c3cccc(C(F)(F)F)c3nc(N)n2n1 [Ex-155]	136
C[C@@H]1CN(c2ccc(F)cc2)CCN1Cc1nc2c3cccc(C#N)c3nc(N)n2n1 [Ex-156]	740
C[C@@H]1CN(c2ccc(F)cc2)CCN1Cc1nc2c3cccc(Br)c3nc(N)n2n1 [Ex-157]	14.4

SMILES	EC50 [nM]
COc1cccc2c1nc(N)n1nc(CCCN3CCN(c4ccccn4)CC3)nc21 [Ex-158]	7.1
Cc1noc2cc(F)c(N3CCN(Cc4nc5c6ccccc6nc(N)n5n4)CC3)cc12 [Ex-160]	343
COCCOc1ccc(N2CCN(Cc3nc4c5ccccc5nc(N)n4n3)CC2)cc1 [Ex-161]	525
COCCOc1ccc(N2CCN(Cc3nc4c5cc(F)cc(F)c5nc(N)n4n3)CC2)cc1 [Ex-162]	74.2
COc1cccc2c1nc(N)n1nc(CCN3CCN(c4ncc(F)cn4)CC3)nc21 [Ex-163]	7.8
COc1cccc2c1nc(N)n1nc(CCN3CCN(c4ccc(F)cn4)CC3)nc21 [Ex-164]	2.5
COc1cccc2c1nc(N)n1nc(CCN3CCN(c4ccccn4)CC3)nc21 [Ex-165]	3.3
COc1cccc2c1nc(N)n1nc(CCN3CCN(c4ccccc4)CC3)nc21 [Ex-166]	13.5
COc1cccc2c1nc(N)n1nc(CCN3CCN(c4ccc(F)cc4)C[C@H]3C)nc21 [Ex-168]	4.1
COc1cccc2c1nc(N)n1nc(CCN3CCN(c4ccc(F)cn4)C[C@H]3C)nc21 [Ex-169]	2.6
COc1cccc2c1nc(N)n1nc(CN3CCN(c4ccccn4)CC3)nc21 [Ex-170]	157
COc1cccc2c1nc(N)n1nc(CN3CCN(C(=O)OC(C)(C)C)CC3C(F)(F)F)nc21 (centres unmarked) [Ex-171]	30.4
COc1cccc2c1nc(N)n1nc(CN3CCN(c4ccc(C(F)(F)F)cn4)C[C@H]3C)nc21 [Ex-173]	22.6
COc1cccc2c1nc(N)n1nc(CN3CCN(c4ccc(F)cc4)CC3C(F)F)nc21 (centres unmarked) [Ex-175]	5.6
COc1cccc2c1nc(N)n1nc(CN3CCN(c4ccc(F)cc4)CC3CF)nc21 (centres unmarked) [Ex-176]	8.9
COc1cccc2c1nc(N)n1nc(CN3CCN(c4ccc(F)cc4)CC3C(F)(F)F)nc21 (centres unmarked) [Ex-177]	12.7
COc1ccc(N2CCN(Cc3nc4c5cccc(OC)c5nc(N)n4n3)CC2(C)C)cc1 [Ex-180]	1.1
COc1cccc2c1nc(N)n1nc(CN3CCN(c4ccc(F)cc4)[C@@H](C)C3)nc21 [Ex-181]	19.9
COc1cccc2c1nc(N)n1nc(CN3CCN(c4ccc(F)cn4)[C@@H](C)C3)nc21 [Ex-182]	10.2
COc1cccc2c1nc(N)n1nc(CN3CCN(c4ccc(F)cc4)CC3(C)C)nc21 [Ex-183]	5

SMILES	EC50 [nM]
COc1ccc(N2CCN(Cc3nc4c5cc(F)cc(OC)c5nc(N)n4n3)CC2(C)C)cc1 [Ex-184]	16.4
COc1cccc(N2CCN(Cc3nc4c5cc(F)cc(OC)c5nc(N)n4n3)CC2(C)C)c1 [Ex-186]	3.5
COc1ccccc1N1CCN(Cc2nc3c4cccc(OC)c4nc(N)n3n2)CC1(C)C [Ex-187]	5.8
CCOC(=O)N1CCN(Cc2nc3c4cccc(OC)c4nc(N)n3n2)C2(CC2)C1 [Ex-188]	12.6
COCCOc1ccc(N2CCN(Cc3nc4c5cccc(OC)c5nc(N)n4n3)C3(CC3)C2)cc1 [Ex-189]	3.1
COCCOc1cccc(N2CCN(Cc3nc4c5cccc(OC)c5nc(N)n4n3)C3(CC3)C2)c1 [Ex-190]	6.7
COc1cccc2c1nc(N)n1nc(CN3CCN(c4ccc(F)cc4)CC34CC4)nc21 [Ex-191]	8.2
COc1cccc2c1nc(N)n1nc(CN3CCN(CCF)CC34CC4)nc21 [Ex-192]	153
COCCN1CCN(Cc2nc3c4cccc(OC)c4nc(N)n3n2)C2(CC2)C1 [Ex-193]	128
COc1cccc2c1nc(N)n1nc(CN3CCN(S(=O)(=O)C4CC4)CC34CC4)nc21 [Ex-194]	24.8
COc1cccc2c1nc(N)n1nc(CN3CCN(c4ccc(F)cc4)C4(CC4)C3)nc21 [Ex-195]	41.6
COc1cccc2c1nc(N)n1nc(CN3CCN(CCC(F)(F)F)CC34CC4)nc21 [Ex-196]	95.7
COc1cccc2c1nc(N)n1nc(CN3CCN(c4ccc(C(F)(F)F)cn4)CC3(C)C)nc21 [Ex-199]	10.8
COc1cccc2c1nc(N)n1nc(CN3CCN(C(=O)c4ccc(C(F)(F)F)cc4)CC3(C)C)nc21 [Ex-200]	15.6
COc1cccc2c1nc(N)n1nc(CN3[C@H](C)CN(C(=O)c4ccc(F)cc4)C[C@@H]3C)nc21 [Ex-201]	50.2
COc1cccc2c1nc(N)n1nc(CN3CCN(C(=O)c4ccc(F)cc4)CC3(C)C)nc21 [Ex-202]	29.1
COc1cc(F)cc2c1nc(N)n1nc(CN3CC4CCC(C3)N4Cc3ccccc3)nc21 [Ex-207]	145
COc1ccc(CN2CCN(Cc3nc4c5cccc(OC)c5nc(N)n4n3)CC2=O)cc1 [Ex-209]	9.4
COc1cccc2c1nc(N)n1nc(CN3CCN(Cc4ccc(C)cc4)C(=O)C3)nc21 [Ex-210]	7.7
COc1cc(F)cc2c1nc(N)n1nc(CN3CCN(Cc4ccc(F)cc4)C(=O)C3)nc21 [Ex-211]	9.9
